Measured values reported in US20200000816A1, “COMPOUND HAVING SOMATOSTATIN RECEPTOR AGONISTIC ACTIVITY AND PHARMACEUTICAL USE THEREOF” (ONO PHARMACEUTICAL CO., LTD., priority 2017, published 2020).
pEC50, pIC50: −log10 of the molar value.

How the values were obtained:
[1] = target: somatostatin receptor subtype 2 (SSTR2) (Homo sapiens, UniProt P30874); conditions: reported in background art; cited from earlier work
[2] = target: somatostatin receptor subtype 3 (SSTR3) (Homo sapiens, UniProt P32745); conditions: reported in background art; cited from earlier work
somatostatin receptor subtype 3 (SSTR3), sequence (P32745 whole entry, species assumed): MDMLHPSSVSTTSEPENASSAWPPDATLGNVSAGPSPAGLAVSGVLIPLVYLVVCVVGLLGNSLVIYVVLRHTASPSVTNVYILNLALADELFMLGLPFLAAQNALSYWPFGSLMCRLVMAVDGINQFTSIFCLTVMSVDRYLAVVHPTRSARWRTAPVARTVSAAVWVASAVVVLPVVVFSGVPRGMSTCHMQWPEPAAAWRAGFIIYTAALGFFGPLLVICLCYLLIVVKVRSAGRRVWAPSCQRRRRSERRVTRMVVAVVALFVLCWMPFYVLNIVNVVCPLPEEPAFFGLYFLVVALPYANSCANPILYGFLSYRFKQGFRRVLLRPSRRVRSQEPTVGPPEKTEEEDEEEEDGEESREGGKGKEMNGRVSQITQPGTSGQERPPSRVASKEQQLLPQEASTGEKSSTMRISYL

[3] = target: somatostatin receptor subtype 1 (SSTR1) (Homo sapiens, UniProt P30872); conditions: reported in background art; cited from earlier work
somatostatin receptor subtype 1 (SSTR1), sequence (P30872 whole entry, species assumed): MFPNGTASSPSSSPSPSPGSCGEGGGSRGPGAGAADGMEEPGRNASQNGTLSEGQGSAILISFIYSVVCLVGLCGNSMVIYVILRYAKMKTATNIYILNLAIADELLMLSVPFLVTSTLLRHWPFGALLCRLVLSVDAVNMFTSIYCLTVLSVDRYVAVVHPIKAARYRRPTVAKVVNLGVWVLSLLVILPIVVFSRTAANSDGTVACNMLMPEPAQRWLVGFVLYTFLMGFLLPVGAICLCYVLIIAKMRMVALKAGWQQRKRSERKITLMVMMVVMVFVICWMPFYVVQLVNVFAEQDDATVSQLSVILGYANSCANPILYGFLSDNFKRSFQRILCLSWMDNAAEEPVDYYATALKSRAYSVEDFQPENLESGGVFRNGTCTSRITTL

[4] = target: somatostatin receptor subtype 4 (SSTR4) (Homo sapiens, UniProt P31391); conditions: reported in background art; cited from earlier work
somatostatin receptor subtype 4 (SSTR4), sequence (P31391 whole entry, species assumed): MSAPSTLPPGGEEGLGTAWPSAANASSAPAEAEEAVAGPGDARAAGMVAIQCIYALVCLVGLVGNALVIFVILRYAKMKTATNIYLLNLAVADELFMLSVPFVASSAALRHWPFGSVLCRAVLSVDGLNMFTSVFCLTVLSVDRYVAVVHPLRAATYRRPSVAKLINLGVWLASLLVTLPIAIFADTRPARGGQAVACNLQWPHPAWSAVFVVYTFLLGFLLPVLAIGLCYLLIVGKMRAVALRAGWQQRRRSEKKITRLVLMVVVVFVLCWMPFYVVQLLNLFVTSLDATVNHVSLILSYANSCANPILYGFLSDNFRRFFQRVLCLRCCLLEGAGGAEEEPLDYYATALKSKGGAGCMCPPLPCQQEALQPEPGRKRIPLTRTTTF

[5] = target: T1, human SSTR2 (Homo sapiens, UniProt P30874); experiment: Evaluation of SSTR2 agonistic activity using cells expressing human SSTR2 (suppression of forskolin-stimulated cAMP production, SSTR2-CHO-K1); type: cell-based; conditions: suppression of cAMP production by forskolin stimulation, 1000 nmol/L octreotide = 100%
T1 construct: Myc; expressed in transfected cells
T1 sequence (P30874 whole entry): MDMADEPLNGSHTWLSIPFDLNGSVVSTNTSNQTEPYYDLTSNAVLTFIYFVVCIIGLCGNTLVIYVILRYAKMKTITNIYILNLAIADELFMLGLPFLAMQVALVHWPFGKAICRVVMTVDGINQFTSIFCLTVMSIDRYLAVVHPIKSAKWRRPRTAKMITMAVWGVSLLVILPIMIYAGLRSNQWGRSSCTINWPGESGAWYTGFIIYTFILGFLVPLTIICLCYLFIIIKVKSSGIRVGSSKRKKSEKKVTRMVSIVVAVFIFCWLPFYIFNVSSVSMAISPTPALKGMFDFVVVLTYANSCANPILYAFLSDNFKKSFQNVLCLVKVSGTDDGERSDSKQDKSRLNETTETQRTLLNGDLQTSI

[6] = target: T2, hERG K+ channel (Homo sapiens, UniProt Q12809); experiment: Evaluation of hERG K+ channel inhibitory activity using cells expressing human ERG (automated patch-clamp, CHO-K1); type: cell-based; conditions: CHO-K1 cells with human ERG gene, tested at 1, 3 and 10 μmol/L, 5-minute incubation
T2 construct: expressed in transfected cells; host or cells: CHO-K1
T2 sequence (Q12809 whole entry): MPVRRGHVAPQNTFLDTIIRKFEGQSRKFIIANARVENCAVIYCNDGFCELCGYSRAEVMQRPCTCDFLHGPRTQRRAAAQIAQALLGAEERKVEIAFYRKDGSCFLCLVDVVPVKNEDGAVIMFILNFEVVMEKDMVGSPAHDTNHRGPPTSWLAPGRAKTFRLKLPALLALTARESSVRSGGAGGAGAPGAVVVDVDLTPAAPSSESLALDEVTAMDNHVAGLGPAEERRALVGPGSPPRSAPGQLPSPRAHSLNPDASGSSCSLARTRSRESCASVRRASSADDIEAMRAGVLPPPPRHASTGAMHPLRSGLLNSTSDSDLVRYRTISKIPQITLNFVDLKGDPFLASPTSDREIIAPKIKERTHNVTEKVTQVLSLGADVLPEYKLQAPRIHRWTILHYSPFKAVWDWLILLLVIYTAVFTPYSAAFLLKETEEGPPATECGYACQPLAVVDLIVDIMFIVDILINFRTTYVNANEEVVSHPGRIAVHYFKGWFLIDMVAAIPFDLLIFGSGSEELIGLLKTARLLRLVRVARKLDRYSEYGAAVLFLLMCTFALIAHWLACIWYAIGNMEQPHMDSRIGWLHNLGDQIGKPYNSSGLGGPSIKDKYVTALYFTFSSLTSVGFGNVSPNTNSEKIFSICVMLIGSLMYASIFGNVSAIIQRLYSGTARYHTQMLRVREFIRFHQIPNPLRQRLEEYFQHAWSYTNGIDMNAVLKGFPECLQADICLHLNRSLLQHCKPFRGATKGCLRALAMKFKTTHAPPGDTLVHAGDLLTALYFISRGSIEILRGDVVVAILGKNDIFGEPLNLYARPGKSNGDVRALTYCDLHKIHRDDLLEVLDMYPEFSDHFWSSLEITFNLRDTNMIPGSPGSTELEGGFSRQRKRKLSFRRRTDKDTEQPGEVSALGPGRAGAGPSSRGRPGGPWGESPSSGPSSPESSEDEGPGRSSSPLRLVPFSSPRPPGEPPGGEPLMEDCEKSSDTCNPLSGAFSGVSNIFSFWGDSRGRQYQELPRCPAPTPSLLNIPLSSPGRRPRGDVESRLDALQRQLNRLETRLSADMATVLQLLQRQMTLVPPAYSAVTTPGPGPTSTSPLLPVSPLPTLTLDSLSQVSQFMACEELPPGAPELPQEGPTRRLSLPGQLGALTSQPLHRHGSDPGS
Method: Evaluation of hERG K^+ Channel Inhibitory Activity Using Cells Expressing Human ERG
CHO-K1 cells having the human ERG gene (ether-a-go-go related gene) introduced therein were subcultured in an F-12 medium [F-12 Nutrient Mixture (HAM)] containing 10% inactivated foetal bovine serum, 100 IU/mL penicillin-100 μg/mL streptomycin and 200 μg/mL geneticin.
Patch-clamp was performed in a full-automated manner using CHO-K1 cells having the human ERG gene introduced therein and having a perforated patch formed therein with amphotericin B. For the experiment, a 384-well PatchPlate™ was used and the cell suspension and compounds were added thereto. The IKr current was measured with command voltages of holding potential of −80 mV, depolarization potential of +40 mV (2 seconds) and repolarization potential of −50 mV (2 seconds). The stimulation frequency was twice (single pulse stimulations) before and after the treatment with a drug (the concentrations of a compound for evaluation were 1, 3 and 10 μmol/L, a 5-minute incubation), and the Ikr maximum current was measured. The inhibition (%) on the CHO-K1 cells having the human ERG gene introduced therein was determined by correcting the variation in the maximum tail current before and after addition of the test substance by the variation thereof in the group treated with a medium (inhibition (%)=(1-variation in current before and after addition of a test substance/variation in current before and after addition of a medium)×100). The 50% inhibitory concentration (IC50 value) was calculated from a line connecting two points on both sides of the inhibition of 50%.

[7] = test system: Chinese hamster lung-derived CHL/IU cells; experiment: Evaluation of phospholipidosis induction ability using cultured cell line (NBD-PE incorporation); type: cell-based; conditions: 24 hours, positive = 25% or more of amiodarone maximum reaction at cell viability 50% or more; for phospholipidosis induction ability (judgement): 6.25-100 μmol/L
Method: Chinese hamster lung-derived CHL/IU cells were suspended in an MEM-E culture solution containing non-essential amino acids, sodium pyruvate and 10% foetal bovine serum and seeded in a 96-well plate. The cells cultured overnight in an incubator (5% carbon dioxide, 95% air, 37° C.) were further cultured for 24 hours after replacing the culture solution with a culture solution containing 6.25, 12.5, 25, 50 or 100 μmol/L of a test substance and NBD-PE (fluorescence label N-(7-nitrobenz-2-oxa-1,3-diazol-4-yl)-1,2-dihexadecanoyl-sn-glycero-3-phosphoethanolamine triethylammonium salt) obtained from Molecular Probes. The phospholipidosis induction ability was evaluated by measuring the concentration of NBD-PE incorporated into the cells. Specifically, the cells were washed twice with PBS and then measured for the fluorescence of NBD-PE (excitation wavelength: 485 nm, fluorescence wavelength: 535 nm) incorporated in the cells on a SpectraMax plate reader available from Molecular Devices, LLC. for evaluation. After measurement of the fluorescence of NBD-PE, the cell viability was evaluated with Premix WST-1 Cell Proliferation Assay System available from TaKaRa Bio Inc. The phospholipidosis induction ability was judged to be positive when, at a dose that provided a cell viability of 50% or more, the reaction (the concentration of NBD-PE incorporated after administration of a test substance) was 25% or more of the maximum reaction of a positive control amiodarone (the concentration of NBD-PE incorporated into the cells after administration of amiodarone was regarded as 100%).

[8] = test system: GH secretion; experiment: Evaluation of suppression of growth hormone (GH) secretion using rats (GHRH-induced); type: in vivo; conditions: Rattus norvegicus, 5 min, oral, dosage of 1 mg/kg, GHRH given 8 hours after dosing, blood GH 5 minutes after GHRH
Method: A medium (distilled water (Otsuka distilled water, Otsuka Pharmaceutical Factory, Inc.)) or a test compound dissolved in the medium was orally administered to rats (7-week old male Crl:CD(SD) IGS rats (Charles River Laboratories Japan, Inc.)) and after 7 hours and 57 minutes, the animals were administered with 50 mg/kg of pentobarbital sodium (Somnopentyl, Kyoritsu Seiyaku Corporation) via the tail vein for anaesthesia. Three minutes after administration of pentobarbital sodium, the rats were administered with 0.01 mg/kg of growth hormone-releasing hormone (GHRH, Bachem) via the tail vein to induce GH secretion. In order to measure the blood GH concentration, 0.2 mL of blood was collected through the jugular vein at 5 minutes after administration of GHRH. The collected blood was centrifuged at 4° C., 13,000×g for 5 minutes to obtain plasma. The blood GH concentration was measured by using Rat/Mouse Growth Hormone ELISA (Millipore) following the instruction of the kit. The percentage (%) of suppression of GH secretion was determined by using the obtained blood GH concentration and the equation {[suppression (%) of GH secretion]=([blood GH concentration of the group administered with the medium]−[blood GH concentration of the group administered with a test compound])/[blood GH concentration of the group administered with the medium]×100}. In the equation, the group administered with the medium represents the group of animals administered with the medium and the group administered with a test compound represents the group of animals administered with a test compound dissolved in the medium.

[9] = test system: gastric acid secretion; experiment: Evaluation of suppression of gastric acid secretion using rats (pyloric ligation); type: in vivo, rat; conditions: continuous intravenous administration, 1 μg/kg/h

somatostatin receptor subtype 2 (SSTR2), sequence (P30874 whole entry, species assumed): as the sequence (P30874 whole entry) above

SMILES: CC(C)[C@@H]1NC(=O)[C@H](CCCCN)NC(=O)[C@@H](Cc2c[nH]c3ccccc23)NC(=O)[C@H](Cc2ccc(O)cc2)NC(=O)[C@@H](NC(=O)[C@H](N)Cc2ccc3ccccc3c2)CSSC[C@@H](C(=O)N[C@H](C(N)=O)[C@@H](C)O)NC1=O [lanreotide acetate]
- binding affinity to SSTR2 [1]: high affinity
- binding affinity to SSTR3 [2]: moderate affinity
- binding to SSTR1 [3]: do not bind
- binding to SSTR4 [4]: do not bind

SMILES: COc1cc2nc(-c3cncc(-c4cc(F)cc(F)c4)c3N3CC[C@@H](NCCC(F)(F)F)[C@@H](O)C3)[nH]c2cc1F [Example 5(6), (3S,4R)-1-[3-(3,5-difluorophenyl)-5-(6-fluoro-5-methoxy-1H-benzimidazol-2-yl)-4-pyridinyl]-4-[(3,3,3-trifluoropropyl)amino]-3-piperidinol]
- pEC50 [5]: 10.17
- pIC50 [6]: ≤ 5.00
- phospholipidosis induction ability (judgement) [7]: negative
- inhibition in vivo at 1 mg/kg [8]: 83%

SMILES: COC(=O)c1cc(F)cc2nc(-c3cncc(-c4cc(F)ccc4F)c3N3CC[C@@H](N)[C@@H](O)C3)[nH]c12 [Example 4(16), Methyl 2-{4-[(3S,4R)-4-amino-3-hydroxy-1-piperidinyl]-5-(2,5-difluorophenyl)-3-pyridinyl}-5-fluoro-1H-benzimidazole-7-carboxylate]
- pEC50 [5]: 11.30
- pIC50 [6]: 5.41
- concentration at which judged to be positive in phospholipidosis induction ability [7]: 25 µM
- inhibition in vivo at 1 mg/kg [8]: 67%

SMILES: C[C@@H](O)[C@@H]1NC(=O)[C@H](CCCCN)NC(=O)[C@@H](Cc2c[nH]c3ccccc23)NC(=O)[C@H](Cc2ccccc2)NC(=O)[C@@H](NC(=O)[C@H](N)Cc2ccccc2)CSSC[C@@H](C(=O)N[C@H](CO)[C@@H](C)O)NC1=O [octreotide]
- percentage of suppression of gastric acid secretion [9]: 39%

SMILES: O[C@H]1CN(c2c(-c3cc(F)cc(F)c3)cncc2-c2nc3cc(F)c(F)cc3[nH]2)CC[C@H]1NC1COC1 [Example 5, (3S,4R)-1-[3-(5,6-difluoro-1H-benzimidazol-2-yl)-5-(3,5-difluorophenyl)-4-pyridinyl]-4-(3-oxetanylamino)-3-piperidinol]
- pEC50 [5]: 9.85
- pIC50 [6]: 5.12
- phospholipidosis induction ability (judgement) [7]: negative
- inhibition in vivo at 1 mg/kg [8]: 92%

SMILES: COC(=O)c1cc(F)cc2nc(-c3c(C)ncc(-c4cc(F)cc(Cl)c4)c3N3CC[C@@H](N)[C@@H](O)C3)[nH]c12 [Example 2(3), Methyl 2-{4-[(3S,4R)-4-amino-3-hydroxy-1-piperidinyl]-5-(3-chloro-5-fluorophenyl)-2-methyl-3-pyridinyl}-5-fluoro-1H-benzimidazole-7-carboxylate]
- pEC50 [5]: 10.72
- pIC50 [6]: 5.28
- concentration at which judged to be positive in phospholipidosis induction ability [7]: 12.5 µM
- inhibition in vivo at 1 mg/kg [8]: 76%
